System: angiotensin II-induced contraction of isolated rabbit aorta rings
Test: Inhibition of agonist-induced contraction, angiotensin II: inhibition of vascular contraction in isolated rabbit aorta rings in vitro
Conditions: based on the 3rd = submaximal agonist concentration, read-out: IC50 against contractions induced by AII
Method: Rabbits of both sexes are stunned by a blow to the neck and bled out, or in some cases anesthetised with Nembutal (about 60-80 mg/kg i.v.) and sacrificed by opening the thorax. The thorax aorta is taken out, freed from adhering connective tissue, divided into 1.5 mm wide ring segments and individually transferred under an initial loading of about 3.5 g to 10 ml organ baths containing 95% O2 /5% CO2 -aerated Krebs-Henseleit nutrient solution temperature-controlled at 37° C. of the following composition: 119 mmol/l of NaCl; 2.5 mmol/l of CaCl2 ×2 H2 O; 1.2 mmol/l of KH2 PO4; 10 mmol/l of glucose; 4.8 mmol/l of KCl; 1.4 mmol/l of MgSO4 ×7 H2 O and 25 mmol/l of NaHCO3.
The contractions are measured isometrically by Statham UC2 cells by means of bridge amplifiers (ifd Mulheim or DSM Aalen) and digitalised and analysed by means of A/D convertors (System 570, Keithley Munich). Agonist dose response curves (DRC) were plotted hourly. With each DRC, 3 or 4 individual concentrations are applied to the baths at an interval of 4 min. […]
The height of the 3rd DRC in the normal case is used as a reference quantity for the evaluation of the test substance to be investigated in further passages, which is applied to the baths in the following DRCs in increasing dosage in each case at the start of the incubation time. […]

- IC50: 0.28 µM
Structure (SMILES): CCCCc1cc(C(=O)O)cc(=O)n1Cc1ccc(S(=O)(=O)N2CCCC2C(=O)O)cc1Cl (stereo not shown) [Example 6]

— patent US5254543A, “Sulphonylbenzyl-substituted pyridones which are angiotension II receptor antagonists” (Bayer Aktiengesellschaft, priority 1992, dated 1993)
